Experimental data published in the supplement of paper PMC10307832.

Tests used:
Assay in all cases: relative viability (nuclei count vs DMSO), 5 days (fraction); higher = more cells survive
NCI-H1755 = test system: NCI-H1755
Outline: (§1)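 Five library-drug doses in √10 steps were combined with a fixed anchor-drug dose, or a single drug was given alone, by pin tool to lung cancer cell lines in 1536-well plates the day after seeding. Nuclei were stained and counted after 5 days. Relative viability is the nuclei count in treated wells over that in vehicle wells, taken as the median of duplicate plates.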

NCI-H1975 = test system: NCI-H1975
Outline: as §1

NCI-H2228 = test system: NCI-H2228
Outline: as §1

NCI-H2342 = test system: NCI-H2342
Outline: as §1

NCI-H2405 = test system: NCI-H2405
Outline: as §1

NCI-H322M = test system: NCI-H322M
Outline: as §1

NCI-H520 = test system: NCI-H520
Outline: as §1

NCI-H661 = test system: NCI-H661
Outline: as §1

PC-14 = test system: PC-14
Outline: as §1

PC-3 [JPC-3] = test system: PC-3 [JPC-3]
Outline: as §1

RERF-LC-KJ = test system: RERF-LC-KJ
Outline: as §1

In the case of `Cc1sc2c(c1C)C(c1ccc(Cl)cc1)=N[C@@H](CC(=O)OC(C)(C)C)c1nnc(C)n1-2` [JQ1] + N=C(N)NC(=N)NCCc1ccccc1 [Phenformin] (partner 250 µM), the relative viability (NCI-H1755; first compound 0.1265 µM) is reported as 0.501, the relative viability (NCI-H1755; first compound 0.4 µM) is reported as 0.506 and the relative viability (NCI-H1755; first compound 1.265 µM) is reported as 0.462. It also gave a relative viability (NCI-H1755; first compound 4 µM) of 0.419, a relative viability (NCI-H1975; first compound 0.04 µM) of 0.41 and a relative viability (NCI-H1975; first compound 0.1265 µM) of 0.31. For the same molecule, the relative viability (NCI-H1975; first compound 0.4 µM) was 0.381, the relative viability (NCI-H1975; first compound 1.265 µM) was 0.299 and the relative viability (NCI-H1975; first compound 4 µM) was 0.297. For the same molecule, the relative viability (NCI-H2228; first compound 0.04 µM) was 0.305, the relative viability (NCI-H2228; first compound 0.1265 µM) was 0.275 and the relative viability (NCI-H2228; first compound 0.4 µM) was 0.297. For the same molecule, the relative viability (NCI-H2228; first compound 1.265 µM) was 0.181, the relative viability (NCI-H2228; first compound 4 µM) was 0.207 and the relative viability (NCI-H2342; first compound 0.04 µM) was 0.604. For the same molecule, the relative viability (NCI-H2342; first compound 0.1265 µM) was 0.57, the relative viability (NCI-H2342; first compound 0.4 µM) was 0.694 and the relative viability (NCI-H2342; first compound 1.265 µM) was 0.809. The relative viability (NCI-H2342; first compound 4 µM) was 0.663, the relative viability (NCI-H2405; first compound 0.04 µM) was 0.381 and the relative viability (NCI-H2405; first compound 0.1265 µM) was 0.224. For the same molecule, the relative viability (NCI-H2405; first compound 0.4 µM) was 0.385, the relative viability (NCI-H2405; first compound 1.265 µM) was 0.239 and the relative viability (NCI-H2405; first compound 4 µM) was 0.223. It also gave a relative viability (NCI-H322M; first compound 0.04 µM) of 0.686, a relative viability (NCI-H322M; first compound 0.1265 µM) of 0.746 and a relative viability (NCI-H322M; first compound 0.4 µM) of 0.66. The relative viability (NCI-H322M; first compound 1.265 µM) was 0.373, the relative viability (NCI-H322M; first compound 4 µM) was 0.417 and the relative viability (NCI-H520; first compound 0.04 µM) was 0.475. The relative viability (NCI-H520; first compound 0.1265 µM) was 0.614, the relative viability (NCI-H520; first compound 0.4 µM) was 0.544 and the relative viability (NCI-H520; first compound 1.265 µM) was 0.275. It also gave a relative viability (NCI-H520; first compound 4 µM) of 0.321, a relative viability (NCI-H661; first compound 0.04 µM) of 0.264 and a relative viability (NCI-H661; first compound 0.1265 µM) of 0.315. The relative viability (NCI-H661; first compound 0.4 µM) was 0.286, the relative viability (NCI-H661; first compound 1.265 µM) was 0.302 and the relative viability (NCI-H661; first compound 4 µM) was 0.282. The relative viability (PC-14; first compound 0.04 µM) was 0.485, the relative viability (PC-14; first compound 0.1265 µM) was 0.237 and the relative viability (PC-14; first compound 0.4 µM) was 0.432. It also gave a relative viability (PC-14; first compound 1.265 µM) of 0.154, a relative viability (PC-14; first compound 4 µM) of 0.167 and a relative viability (PC-3 [JPC-3]; first compound 0.04 µM) of 0.466. The relative viability (PC-3 [JPC-3]; first compound 0.1265 µM) was 0.474, the relative viability (PC-3 [JPC-3]; first compound 0.4 µM) was 0.46 and the relative viability (PC-3 [JPC-3]; first compound 1.265 µM) was 0.461. It also gave a relative viability (PC-3 [JPC-3]; first compound 4 µM) of 0.376, a relative viability (RERF-LC-KJ; first compound 0.04 µM) of 0.402 and a relative viability (RERF-LC-KJ; first compound 0.1265 µM) of 0.374. The relative viability (RERF-LC-KJ; first compound 0.4 µM) was 0.324, the relative viability (RERF-LC-KJ; first compound 1.265 µM) was 0.316 and the relative viability (RERF-LC-KJ; first compound 4 µM) was 0.292.
